According to ChEMBL document CHEMBL5252642, “Design and synthesis of naturally-inspired SARS-CoV-2 inhibitors” (RSC Med Chem, 2023):
pEC50: −log10 of the molar value. Activity calls are given as the source filed them. The rule behind the calls is not given here.

Tested on: SARS-CoV-2
Assay: Antiviral activity against SARS-CoV-2 Omicron BA1 variant infected human A549-ACE2 cells assessed as inhibition of viral replication
Format: functional, organism-based
Details: Severe acute respiratory syndrome coronavirus 2, Omicron BA1, A549-ACE2

Row | Structure (SMILES) | pEC50
1 | COc1ccc(CCN2C[C@H]3O[C@]4(C2)CN(S(=O)(=O)c2ccc(C)cc2)[C@]2(C(C)C)C=C[C@H](O)[C@H]3[C@H]42)cc1 | 5.46
2 | COc1cc(CN2C[C@H]3O[C@]4(C2)CN(S(=O)(=O)c2ccc(C)cc2)[C@]2(C(C)C)CC[C@H](OCCCN(C)C)[C@H]3[C@H]42)cc(OC)c1 | 5.36

Tested on: not listed separately
Assay: Selectivity index, ratio of CC50 for human A549-ACE2 cells to EC50 for antiviral activity against SARS-CoV-2 Omicron BA1 variant infected human A549-ACE2 cells
Format: toxicity
Details: read-out: Ratio CC50/EC50

Row | Structure (SMILES) | selectivity ratio
3 | Cc1ccc(S(=O)(=O)N2C[C@@]34CN(C(=O)c5cccs5)C[C@@H](O3)[C@@H]3[C@H]4[C@@]2(C(C)C)CC[C@@H]3O)cc1 | > 3
4 | Cc1ccc(S(=O)(=O)N2C[C@@]34CN(CCc5c[nH]c6ccccc56)C[C@@H](O3)[C@@H]3[C@H]4[C@@]2(C(C)C)CC[C@@H]3O)cc1 | 1.6
5 | Cc1ccc(S(=O)(=O)N2C[C@@]34CN(C)C[C@@H](O3)[C@H]3[C@@H](Oc5ncccn5)CC[C@]2(C(C)C)[C@H]34)cc1 | 0.8
6 | Cc1ccc(S(=O)(=O)N2C[C@@]34CN(Cc5nc6ccccc6s5)C[C@@H](O3)[C@H]3C(=O)CC[C@]2(C(C)C)[C@H]34)cc1 | 6.9
7 | COc1cc(CN2C[C@H]3O[C@]4(C2)CN(S(=O)(=O)c2ccc(C)cc2)[C@]2(C(C)C)CC[C@H](O)[C@H]3[C@H]42)cc(OC)c1 | 2.3
8 | COc1ccc(CCN2C[C@H]3O[C@]4(C2)CN(S(=O)(=O)c2ccc(C)cc2)[C@]2(C(C)C)C=CC(=O)[C@H]3[C@H]42)cc1 | 0.5
9 | COc1ccc(CCN2C[C@H]3O[C@]4(C2)CN(S(=O)(=O)c2ccc(C)cc2)[C@]2(C(C)C)C=C[C@H](O)[C@H]3[C@H]42)cc1 | 3.3
10 | Cc1ccc(S(=O)(=O)N2C[C@@]34CN(Cc5ccccc5)C[C@@H](O3)[C@H]3[C@@H](Oc5ncccn5)CC[C@]2(C(C)C)[C@H]34)cc1 | 1
11 | Cc1ccc(S(=O)(=O)N2C[C@@]34CN(Cc5ccccc5)C[C@@H](O3)[C@H]3C(=O)C=C[C@]2(C(C)C)[C@H]34)cc1 | 0.9
12 | Cc1ccc(S(=O)(=O)N2C[C@@]34CN(Cc5ccccc5)C[C@@H](O3)[C@H]3C(=O)CC[C@]2(C(C)C)[C@H]34)cc1 | 0.7
13 | Cc1ccc(S(=O)(=O)N2C[C@@]34CN(Cc5ccccc5)C[C@@H](O3)[C@@H]3[C@H]4[C@@]2(C(C)C)C=C[C@@H]3O)cc1 | > 3
14 | COc1cc(CN2C[C@H]3O[C@]4(C2)CN(S(=O)(=O)c2ccc(C)cc2)[C@]2(C(C)C)CC[C@H](OCCCN(C)C)[C@H]3[C@H]42)cc(OC)c1 | 5.7
15 | Cc1ccc(S(=O)(=O)N2C[C@@]34CN(Cc5nc6ccccc6s5)C[C@@H](O3)[C@@H]3[C@H]4[C@@]2(C(C)C)CC[C@@H]3O)cc1 | 1.6
16 | Cc1ccc(S(=O)(=O)N2C[C@@]34CN(C(=O)c5ccc(F)cc5N)C[C@@H](O3)[C@@H]3[C@H]4[C@@]2(C(C)C)CC[C@@H]3O)cc1 | 1.4

Tested on: Severe acute respiratory syndrome coronavirus 2
Assay: Inhibition of SARS-CoV2 main protease C145A mutant by measuring luciferase signal at 0.02 to 125 uM by reverse-nanoluciferase reporter assay
Details: dose 0.02-125 µM

Row | Structure (SMILES) | inhibition
17 | CC(C)C[C@H](NC(=O)OCc1ccccc1)C(=O)N[C@@H](C[C@@H]1CCNC1=O)C(O)S(=O)(=O)O (stereo partly drawn) | inactive
18 | COc1ccc(CCN2C[C@H]3O[C@]4(C2)CN(S(=O)(=O)c2ccc(C)cc2)[C@]2(C(C)C)C=C[C@H](O)[C@H]3[C@H]42)cc1 | inactive
